Laboratory results as given in patent US9119884B2, “LLP2A-bisphosphonate conjugates for osteoporosis treatment” (The Regents of the University of California, priority 2010, dated 2015).

What was measured:
[1] = test system: 10-week-old ovariectomized (OVX) mice; assay: Ovariectomized (OVX) mouse model; format: in vivo; settings: for maximum stress: femur three-point bending; for maximum stress / cortical bone thickness: single IV injection of conjugate or four weeks of PTH
Text: FIG. 21 depicts histomorphometric analyses of the 5th lumbar vertebral bodies after LLP2A-Ale treatment of 10-week-old ovariectomized (OVX) mice, showing increases in osteoblast numbers, activities and bone formation rate/bone surface (BFR/BS) post-treatment. Analyses included trabecular bone area (%), osteoblast surface (Ob/BS), mineralizing surface (MS/BS) activities and BFR/BS (P<0.05).
Representative fluorescent images from the trabecular bone at the 5th LVB (Top panel: white arrowheads illustrate osteoblasts; Bottom panel: yellow arrows illustrate double labeled trabecular bone surfaces).
FIG. 23 depicts histomorphometry analyses of the right mid-femurs included bone formation at the endosteal (Ec) or periosteal (Ps.) bone surfaces, and cortical bone thickness of 10-week-old ovariectomized (OVX) mice. […] Three-point bending was performed on left femurs to obtain maximum stress of the femurs.
Short yellow arrows illustrated double labeled endocortical bone surfaces. (a, p<0.05 versus Sham; b, P<0.05 vs. OVX+PBS, c, P<0.05 vs. OVX+LLP2A; d, P<0.05 vs. OVX+Ale. Data are represented as Mean±SD).

[2] = test system: C57BL/6 mice; assay: Guiding GFP-labeled mouse MSCs to bone; format: in vivo; settings: for osteocalcin levels: 0.9 nmol/mouse I.P. one hour after GFP-MSC I.V.
Description: LLP2A-Ale or LLP2A-Ale (1) were dissolved in 0.9% normal saline and injected I.P. to the mice one hour after MSC at a final solution of 0.9 nmol/mouse. Mice were sacrificed either at 3 days or 3 weeks. Osteocalcin, a bone formation marker, was measured at both 3 days and 3 weeks post-treatments. The lumbar vertebral bodies from the 3-day treatment groups were frozen and sectioned with cryostat. The sections were then stained with anti-GFP antibody. The transplanted MSCs were stained in brown.

[3] = test system: bone marrow cells undergoing osteogenic differentiation; assay: Rainbow bead cell-binding assay; format: cell-based, mouse; settings: cells cultured in osteogenic medium for 7 days, incubated with rainbow beads
Description: Mouse MSCs were purchased from Invitrogen (Cat#S1502-100), cultured in osteogenic medium for 7 days and incubated with rainbow beads for one hour. […] Original magnification 10× on the right and 20× on the left of the top panel.
A new color-encoding method that facilitates high-throughput screening of OBOC combinatorial libraries was developed. This method differs from the traditional methods used to monitor integrin expressions in the MSCs, i.e., the use of antibody-based fluorescence-activated cell sorting (FACS) or immunoblotting. In the present method, polymer beads displaying chemical compounds or families of compounds were stained with oil-based organic dyes that are used as coding tags. […] These rainbow beads were prepared in a multiplex manner such that each ligand reacted to one or a series of integrins that were coded one color, See FIG. 7 (Luo, J., et al., J Comb Chem, 2008, 10(4): p. 599-604). This rainbow bead technique was then applied to determine the integrin profile on the cell surfaces.
In FIG. 7, bone marrow cells were cultured in osteogenic medium for 7 days and incubated with rainbow beads. The purple beads that coded with LLP2A, the ligand with high affinity and specificity against α4β1, were covered with layers of cells identified by green arrows. […]

[4] = test system: NOD/SCID/MPSVII mice; assay: huMSC transplantation with LLP2A-Ale in immunodeficient mice; format: in vivo, mouse; settings: vertebral body, three weeks after single injection of huMSC with or without compound
Text: Human MSCs (huMSCs) were obtained and injected together with LLP2A-Ale to immunodeficient mice, NOD/SCID/mucopolysaccharidosis type VII (MPSVII). This mouse strain lacked the β-glucuronidase (GUSB) enzyme. The donor cells could be easily detected using biochemical detection of β-glucuronidase (See Meyerrose, T. E., et al., Stem Cells, 2007. 25(1): p. 220-7; Meyerrose, T. E., et al., Stem Cells, 2008. 26(7): p. 1713-22). At three-month of age, the mice received a single intravenous (i.v.) injection of either vehicle (100 μl PBS/mouse), huMSCs (5×10^5/100 μl/PBS/mouse), huMSCs+LLP2A (5 nM/mouse) or huMSCs+LLP2A-Ale (500 ng/mouse; total compound weight 3.5 μg, with alendronate concentration of 500 ng/mouse). The alendronate dose we used for the study was approximately one-fifth of the therapeutic dose for the treatment of osteoporosis (See Colon-Emeric, C. S., JAMA, 2006, 296(24): p. 2968-9; Ma, Y. L., et al., Endocrinology, 2003. 144(5): p. 2008-15). […] HuMSC, as shown by GUSB+red stain, were only present at the trabecular bone surface in the LLP2A-Ale-treated group (lower panel). There was no demonstrable GUSB activity in the lung, liver, kidney and LVB that received PBS (top panels) or huMSCs (middle panel). Cancellous bone mass in the vertebral body was—more than 40% higher in the group treated with MSC+LLP2A-Ale (cancellous bone volume, BV/TV 13.9±2.2%) compared to PBS (BV/TV 9.4±1.7%), MSC (BV/TV 10.2±1.9%) or MSC+LLP2A (BV/TV 10.5±0.5%) controls three weeks after a single injection of huMSC and LLP2A-Ale.
In FIG. 8, Three-month-old MSPVII mice received a single intravenous injection of either of PBS, huMSC (5×10^5) or huMSC+LLP2A or LLP2A-Ale. The mice were sacrificed 24 hours later. Following sacrifice, small portions of organ including lumbar vertebral bodies (LVB) were harvested and frozen in Optimal Cutting Temperature embedding media. The sections were stained using naphthol-AS-BI-β-Dglucuronide (GUSB) as a substrate. Representative sections from lung, liver, kidney and lumbar vertebral (LVB) trabecular bone regions were presented. […] Isolated GUSB-positive cells were also observed within bone marrow of the LVB in […] group.
The NOD-SCID MPSVII strain was the result of extensive backcrossing of the mutant GUSB allele from the B6.C-H-2^bm1/ByBirgus^mps/+ mouse onto the NOD/LtSz-scid background. Animals were bred and maintained at the Stem Cell Department of the UC Davis Medical Center under approved animal care protocols. Affected animals were generated by breeding mice heterozygous for the MPSVII mutation. Homozygous GUSB-deficient pups were identified at birth by biochemical analysis of toe tissue.
Serum levels of the amino terminal propeptide of type 1 procollagen (P1NP), osteocalcin and C-terminal telopeptides of type I collagen (CTX-I) were measured using mouse sandwich ELISA kits from Biomedical Technologies (Stroughton, Mass.) or Immunodiagnostic System (Fountain Hills, Ariz.). The manufacturer's protocols were followed and all samples were assayed in duplicate. A standard curve was generated from each kit and the absolute concentrations were extrapolated from the standard curve. The coefficients of variations (CVs) for inter-assay and intra-assay measurements were less than 10% for all assays and are similar to the manufacturer's references (Yao, W., et al., Arthritis Rheum, 2008, 58(6): p. 1674-86; Yao, W., et al., Arthritis Rheum, 2008, 58(11): p. 3485-3497).
After fixation in 4% paraformaldehyde, the right distal femurs, mid-femurs and the 5th lumbar vertebral bodies were dehydrated in graded concentrations of ethanol and xylene and embedded un-decalcified in methyl methacrylate. The frontal sections (8 μm thick) were cut using a vertical bed microtome (Leica/Jung 2265) and affixed to slides coated with a 2% gelatin solution. Unstained 8-μm-thick sections were used for assessing fluorochrome labeling and dynamic changes in bone. […]

[5] = test system: 129SvJ mice; format: in vivo, mouse
[6] = target: integrin α4β1 (Homo sapiens, UniProt P05556+P13612); settings: cited from earlier work
Sequence of integrin α4β1 (P13612 34-1032): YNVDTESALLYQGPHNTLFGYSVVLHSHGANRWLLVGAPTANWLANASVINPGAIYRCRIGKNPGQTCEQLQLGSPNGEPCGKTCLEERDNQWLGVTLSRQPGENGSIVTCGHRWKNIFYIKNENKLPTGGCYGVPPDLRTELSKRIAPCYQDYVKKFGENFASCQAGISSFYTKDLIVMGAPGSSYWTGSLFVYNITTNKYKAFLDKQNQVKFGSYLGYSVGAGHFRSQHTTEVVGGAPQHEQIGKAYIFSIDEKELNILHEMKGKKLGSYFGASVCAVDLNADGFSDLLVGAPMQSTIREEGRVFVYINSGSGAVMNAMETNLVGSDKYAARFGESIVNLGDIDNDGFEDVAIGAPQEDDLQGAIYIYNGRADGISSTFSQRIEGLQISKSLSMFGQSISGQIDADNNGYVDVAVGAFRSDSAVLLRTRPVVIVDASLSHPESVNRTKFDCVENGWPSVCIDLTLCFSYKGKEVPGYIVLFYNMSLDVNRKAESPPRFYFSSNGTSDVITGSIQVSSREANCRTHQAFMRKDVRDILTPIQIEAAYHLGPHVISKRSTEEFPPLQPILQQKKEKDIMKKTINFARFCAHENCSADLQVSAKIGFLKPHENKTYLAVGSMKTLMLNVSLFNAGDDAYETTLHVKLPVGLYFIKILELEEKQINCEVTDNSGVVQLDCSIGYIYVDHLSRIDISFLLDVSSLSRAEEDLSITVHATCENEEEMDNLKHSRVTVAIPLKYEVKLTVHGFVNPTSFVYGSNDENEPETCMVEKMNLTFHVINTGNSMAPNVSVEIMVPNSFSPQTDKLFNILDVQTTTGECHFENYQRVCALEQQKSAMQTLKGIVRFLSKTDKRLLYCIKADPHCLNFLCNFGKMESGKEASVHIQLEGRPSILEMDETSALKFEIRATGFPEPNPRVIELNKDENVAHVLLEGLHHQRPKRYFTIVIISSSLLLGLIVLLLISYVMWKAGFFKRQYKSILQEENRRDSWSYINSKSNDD
Sequence of integrin α4β1 (P05556 21-798): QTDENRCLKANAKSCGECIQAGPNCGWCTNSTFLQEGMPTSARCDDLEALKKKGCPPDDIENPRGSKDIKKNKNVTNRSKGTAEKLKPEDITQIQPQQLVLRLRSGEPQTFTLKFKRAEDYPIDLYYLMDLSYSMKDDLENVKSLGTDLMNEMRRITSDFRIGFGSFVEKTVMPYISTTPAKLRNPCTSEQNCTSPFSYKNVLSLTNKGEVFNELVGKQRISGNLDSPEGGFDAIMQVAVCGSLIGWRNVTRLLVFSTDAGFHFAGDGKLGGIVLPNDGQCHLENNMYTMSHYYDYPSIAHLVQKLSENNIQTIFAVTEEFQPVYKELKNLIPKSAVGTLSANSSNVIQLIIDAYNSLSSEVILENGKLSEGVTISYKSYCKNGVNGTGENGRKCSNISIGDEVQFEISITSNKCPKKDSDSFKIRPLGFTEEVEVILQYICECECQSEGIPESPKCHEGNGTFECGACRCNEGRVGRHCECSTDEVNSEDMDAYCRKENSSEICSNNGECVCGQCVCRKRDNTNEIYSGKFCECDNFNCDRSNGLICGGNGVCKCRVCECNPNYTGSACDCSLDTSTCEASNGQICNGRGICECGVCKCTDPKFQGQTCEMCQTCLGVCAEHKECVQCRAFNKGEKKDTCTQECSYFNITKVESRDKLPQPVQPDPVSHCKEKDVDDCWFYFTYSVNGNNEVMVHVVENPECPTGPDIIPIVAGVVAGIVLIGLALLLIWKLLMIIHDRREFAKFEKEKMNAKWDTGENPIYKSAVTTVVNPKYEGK

In the case of NCCCC(O)(P(=O)(O)O)P(=O)(O)O [Ale, Alendronate, reference compound], the maximum stress [1] is reported as “not significantly altered” and the cortical bone thickness ([1]; mid-femur) is reported as “not significantly altered”.

In the case of LLP2A-Alendronate (1) [LLP2A-Ale (1)], the “location of transplanted MSCs (anti-GFP staining)” value ([2]; lumbar vertebral bodies, three days) is reported as “observed within bone marrow and adjacent to the trabecular bone surfaces”, the osteocalcin levels ([2]; three days) is reported as “significantly increased” and the osteocalcin levels ([2]; three weeks) is reported as “significantly increased”.

In the case of “LLP2A: bisaryl urea peptidomimetic, highly potent and selective ligand for the activated form of α4β1 integrin [reference compound]”, the “cell binding to ligand-coded rainbow beads (affinity)” value [3] is reported as “high affinity”, the “cancellous bone volume, BV/TV” value [4] is reported as 10.5±0.5% and the “bone formation rate at endocortical and periosteal surfaces of the mid-femurs” value ([5]; four weeks after injections) is reported as “significantly increased”. For the same molecule, the “proliferating cell populations (BrdU)” value ([5]; two days after i.v. injection, lumbar vertebral sections) was “increased the number of proliferating cell populations within the marrow cavity”, the maximum stress [1] was “not significantly altered” and the cortical bone thickness ([1]; mid-femur) was “not significantly altered”. For the same molecule, the IC50 [6] was 2 pM.

B1: PTH: PTH, comparator treatment given for four weeks in OVX mice (peptide, UniProt P01270 32-115, looked up)
Parathyroid hormone: SVSEIQLMHNLGKHLNSMERVEWLRKKLQDVHNFVALGAPLAPRDAGSQRPRKKEDNVLVESHEKSLGEADKADVNVLTKAKSQ
modifications: Parathyroid hormone
With B1 the maximum stress [1] was “not significantly altered”, the endocortical bone formation ([1]; mid-femur, vs OVX) was “increases” and the cortical bone thickness ([1]; mid-femur) was “not significantly altered”.
